Data as given in patent publication US11116764B2, “Combination of pure 5-HT6 receptor antagonists with NMDA receptor antagonist” (SUVEN LIFE SCIENCES LIMITED, priority 2016, dated 2021).
Structures can show the parent of a compound that is named as a salt.

Legend:
[1] = biological target: human recombinant 5-HT2A receptor (Homo sapiens (Human), UniProt P28223); assay: Determination of Ki value at 5-HT2A receptor ([3H]-Ketanserine radioligand binding); details: [3H]-Ketanserine 1.75 nM, average of three independent experiments
Protocol: Determination of Ki Value at 5-HT2A Receptor
Compound was tested according to the following procedures.
Receptor source: Recombinant mammalian cells
Radioligand: [^3H]-Ketanserine (47.3 Ci/mmol)
Final ligand concentration—[1.75 nM]
Non-Specific Ligand: 0.1 mM 1-Naphthylpiperazine (1-NP)
Reference compound: 1-Naphthylpiperazine (1-NP)
Positive control: 1-Naphthylpiperazine (1-NP)
Incubation conditions: Reactions were carried out in 67 mM Tris-HCl (pH 7.4) for 4 hours at 37° C. The reaction was terminated by rapid vacuum filtration onto the glass fiber filters. Radioactivity trapped onto the filters was determined and compared to the control values in order to ascertain any interactions of the test compound(s) with the cloned serotonin 5-HT2A binding site. • Reference: Methods in Molecular Biology, 2002, 190, 31-49
Compounds 1, 2 and 3 bind weakly to 5-HT2A receptor when tested by the in-vitro radioligand binding technique on human recombinant 5-HT2A receptor. The Ki values tabulated below are average of three independent experiments.

Male Wistar rats [2] = assay: Object recognition task model; type: in vivo, rat; details: choice trial T2, 24 hours after T1; compared to the vehicle treatment
Protocol: Four animals were housed in each cage. […] Water was provided ad libitum throughout the experiment. […] Rats received vehicle or test compounds or memantine or test compound and memantine, before familiar (T1) and choice (T2) trials. […] During the T1 and T2 trial, explorations of each object (defined as sniffing, licking, chewing or having moving vibrissae whilst directing the nose towards the object at a distance of less than 1 cm) were recorded using stopwatch.

Male Wistar rats [3] = assay: Evaluation of theta modulation in dorsal hippocampus of anesthetized male Wistar rats; type: in vivo, rat; details: memantine 1 mg/kg i.v. alone or 30 min after compound 1 1 mg/kg i.v.
Excerpt: […]. Academic Press, New York Results:

Male Wistar rats [4] = assay: Evaluation of acetylcholine modulation in ventral hippocampus of male Wistar rats (microdialysis); type: in vivo, rat; details: memantine 1 mg/kg s.c. alone or with compound 1 3 mg/kg p.o.; combination compared to memantine alone
Excerpt: Evaluation of Acetylcholine Modulation in Ventral Hippocampus of Male Wistar Rats Experimental Procedure:
Male Wistar rats (240-300 g body weight) were stereotaxically implanted with a microdialysis guide cannula in ventral hippocampus (AP: −5.2 mm, ML: +5.0 mm, DV: −3.8 mm) under isoflurane anesthesia. Co-ordinates were taken according to atlas for the rat brain (Paxinos and Watson 2004) with reference points taken from bregma and vertical from the skull. The rats were allowed to recover individually for four-five days in a round bottom Plexiglas bowl with free access to feed and water.
After surgical recovery of 4-5 days, male Wistar rats were connected to dual quartz lined two-channel liquid swivel (Instech, UK) on a counter balance lever arm, which allowed unrestricted movements of the animal. […]
Acetylcholine in dialysate was quantified using LC-MS/MS method in the calibration range of 0.099 nmol/L-70.171 nmol/L.
All microdialysis data for acetylcholine was plotted as percent change from mean dialysate basal concentrations with 100% defined as the average of five pre-dose values. […] Area under the curve (AUC) values for percent change in acetylcholine levels were calculated and the statistical significance between the mean AUC value were compared against memantine treatment using one-way ANOVA followed by Dunnett's test. […]

COc1ccc2c(c1)c(CN1CCN(C)CC1)cn2S(=O)(=O)c1ccccc1Br [Compound 1, 1-[(2-Bromophenyl)sulfonyl]-5-methoxy-3-[(4-methyl-1-piperazinyl)methyl]-1H-indole dimesylate monohydrate]
Ki [1]: 2510 ± 377 nM

COc1ccc2c(c1)c(CN1CCN(C)CC1)cn2S(=O)(=O)c1ccc(F)cc1 [Compound 2, 1-[(4-Fluorophenyl)sulfonyl]-5-methoxy-3-[(4-methyl-1-piperazinyl)methyl]-1H-indole dihydrochloride]
Ki [1]: > 10000 nM

COc1ccc2c(c1)c(CN1CCN(C)CC1)cn2S(=O)(=O)c1ccc(C(C)C)cc1 [Compound 3, 1-[(4-Isopropylphenyl)sulfonyl]-5-methoxy-3-[(4-methyl-1-piperazinyl)methyl]-1H-indole dihydrochloride]
Ki [1]: 926 ± 317 nM

CC12CC3CC(C)(C1)CC(N)(C3)C2 [memantine]
discriminative index (Male Wistar rats [2]): No significant increase | change in hippocampal theta power (Male Wistar rats [3]): no change | change in hippocampal acetylcholine levels (Male Wistar rats [4]): moderate change
